Experimental data: patent US7744867B2, “PTPase inhibitors and method of using same” (The Cleveland Clinic Foundation, priority 2001, dated 2010)

Experiments:
intracellular Flag-PRL-1 = molecular target: T1, intracellular Flag-PRL-1 (Homo sapiens, UniProt Q93096); assay: PTPase activity of anti-Flag immunocomplexes from NIH3T3 transfectants; type: cell-based; settings: treated 5 min
T1 construct: expressed in transfected cells; host or cells: NIH3T3
Protocol: (§1) An expression construct of Flag-tagged PRL-1 or control vector was transfected into NIH3T3 cells which were then treated without or with sodium stibogluconate and used for immunoprecipitation assays with a monoclonal anti-Flag antibody. The immunocomplexes were analyzed by SDS-PAGE/Western blotting and PTPase assays. A Flag-tagged protein with a molecular weight approximately 22 kDa as expected for Flag-PRL-1 was detected in the immunocomplexes from untreated or sodium stibogluconate -treated Flag-PRL-1 transfectants but not in those from the control cells (FIG. 6A).
(§2) Glucatime inactivates intracellular PRL phosphatases. NIH3T3 stable transfectants of Flag-tagged PRL-1 (A), PRL-2 (B) and PRL-3 (C) were untreated or treated with glucatime for 5 minutes and then washed to remove cell free drug. The Flag-tagged PRLs were immunoprecipitated from the cells using a monoclonal anti-Flag antibody. The amounts of Flag-tagged PRLs in the immunocomplexes were quantified by SDS-PAGE/Western blotting with the anti-Flag antibody (the top panel). Activities of the immunocomplexes in dephosphorylating a synthetic phosphotyrosine peptide were determined by in vitro PTPase assays (the low panel).

intracellular Flag-PRL-3 = molecular target: T2, intracellular Flag-PRL-3 (Homo sapiens, UniProt O75365); assay: as above; type: cell-based; settings: treated 5 min
T2 construct: expressed in transfected cells; host or cells: NIH3T3
Protocol: as §1, §2

Baf3 cells = assay: IL-3-induced proliferation of Baf3 cells; type: cell-based, murine; settings: at 1,000 μg/ml
Protocol: The murine hematopoietic cell line Baf3 was maintained in RPMI 1640 medium supplemented with 10% fetal calf serum (FCS) and murine IL-3 (20 units/ml) as described previously. Human myeloid cell line TF-1 was maintained in RPMI 1640 supplemented with 10% FCS and 40 ng/ml of recombinant human GM-CSF as described previously. For cell proliferation assays, cells were washed in 10% FCS medium twice, resuspended in 10% FCS medium, incubated at 37° C. for 16 hours and then cultured at 37° C. in 10% FCS medium containing various amounts of cytokines, sodium stibogluconate, or PSbT for 3-6 days as indicated. The cell numbers in proliferation assays were determined by an MTT assay or by microscopic cell counting as indicated.

TF-1 cells = assay: Proliferation of TF-1 cells with GM-CSF and IFNα (MTT); type: cell-based, human; settings: at 50 μg/ml; GM-CSF 5-40 ng/ml
Protocol: FIG. 7 illustrates that sodium stibogluconate augments the opposite effects of GM-CSF and IFNα on TF-1 cell growth: A. Proliferation of TF-1 cells cultured in the presence of various amounts of GM-CSF and with or without sodium stibogluconate for three days was measured by MTT assays; B. Proliferation of TF-1 cells cultured in the presence of GM-CSF (50 ng/ml) and various amounts of IFNα with or without sodium stibogluconate (50 μg/ml) for three days was measured by MTT assays; C. The results in B shown as percentage inhibition of cell growth; D. Proliferation of TF-1 cells in the presence of GM-CSF (20 ng/ml) and various amounts of sodium stibogluconate for 6 days was measured by MTT assays; E. Proliferation of TF-1 cells in the presence of GM-CSF (20 ng/ml)/IFNα (1,000 u/ml) and various amounts of sodium stibogluconate for 6 days was measured by MTT assays.
The murine hematopoietic cell line Baf3 was maintained in RPMI 1640 medium supplemented with 10% fetal calf serum (FCS) and murine IL-3 (20 units/ml) as described previously. Human myeloid cell line TF-1 was maintained in RPMI 1640 supplemented with 10% FCS and 40 ng/ml of recombinant human GM-CSF as described previously. […] The cell numbers in proliferation assays were determined by an MTT assay or by microscopic cell counting as indicated.

[1] = cited from earlier work
GST/SHP-1 fusion protein [2] = molecular target: T3, GST/SHP-1 fusion protein (Mus musculus, UniProt P29351); assay: In vitro PTPase assay, dephosphorylation of a synthetic phosphotyrosine peptide; type: biochemical; settings: Sb concentration of 10 μg/ml
T3 construct: made in house
Protocol: In vitro PTPase activities were measured using the commercial protein tyrosine phosphatase assay kit (UBI) following established procedure. This assay measures the in vitro dephosphorylation of a synthetic phosphotyrosine peptide (R-R-L-I-E-D-A-E-pY-A-A-R-G). Briefly, 0.01 μg of GST/PTPase fusion protein was incubated in 50 μl of Tris buffer (10 mM Tris, […]) at 22° C. for 10 minutes, followed by addition of 0.2 mM of the phosphotyrosine peptide and incubation at 22° C. for 18 hours. 100 μl of Malachite Green solution was added and incubated for 5 minutes, and the absorbance at 660 nm was measured after 5 minutes.

recombinant PRL-3 = molecular target: T4, recombinant PRL-3 (Homo sapiens, UniProt O75365); assay: In vitro PTPase assay with recombinant PRL (peptide or DiFMUP substrate); type: biochemical
T4 construct: made in house; host or cells: E. coli DH5α
Protocol: In vitro PTPase activities were measured using the commercial protein tyrosine phosphatase assay kit (UBI) following established procedure. […] 100 μl of Malachite Green solution was added and incubated for 5 minutes, and the absorbance at 660 nm was measured after 5 minutes.
Recombinant GST fusion proteins of human PRL-1, 2 and 3 phosphatases were purified with glutathione beads from DH5α bacteria transformed by pGEX vectors containing cDNA fragments encoding the human PRLs which were generated by RT-PCR from H9 cells and confirmed by sequence analysis. Activities of the purified recombinant PRL proteins in dephosphorylating DiFMUP in the absence or presence of various inhibitors were measured following established procedure.
To assess whether sodium stibogluconate is an inhibitor of oncogenic PRL phosphatases, its effects on the PTPase activity of recombinant PRLs were evaluated by in vitro PTPase assays.

GST/SHP-1 fusion protein [3] = molecular target: T3, GST/SHP-1 fusion protein; assay: Reversibility of SHP-1 inhibition (washing of bead-bound GST/SHP-1); type: biochemical; settings: preincubated with inhibitor, then washed
Excerpt: The beads were then washed 3 times in Tris buffer or without washing prior to in vitro PTPase assays.

WM9 cells = assay: Apoptotic cells by Annexin V/propidium iodide assay (fluorescent microscopy); type: cell-based, human; settings: 3 days, control 5%
Protocol: (§3) Detection of apoptotic cells by Annexin V/propidium iodide assay. Annexin V staining of exposed membrane phospholipid phosphatidylserine (PS) was done using the Annexin V assay kit (Pharmingen, San Diego, Calif.). Briefly, U266 or WM9 cells were cultured in the 10% FCS RPMI 1640 medium in the absence or presence of sodium stibogluconate, IFNα, or both for 3 days. Cells were then washed in PBS twice and stained in binding buffer (10 mM Hepes, pH 7.4; 140 mM NaCl; 2.5 mM CaCl2) containing Annexin V-FITC and propidium iodide for 15 min. The reaction was stopped by adding 10 volumes of binding buffer and analyzed by FACS (Becton Dickinson Facsvantage) or fluorescent microscopy.

Melanomas = settings: melanoma patients; cited from earlier work
H9 cells (T-lymphoma) = assay: Growth inhibition of human tumor cell lines; type: cell-based; settings: SS 12.5 μg/ml, IFNα 1,000 u/ml, alone or combined
U266 cells = assay: Apoptotic cells by Annexin V/propidium iodide assay; type: cell-based, human; settings: sodium stibogluconate 100 μg/ml, IFNα 1000 u/ml, 3 days, control 8%
Protocol: as §3

T3 sequence (P29351 whole entry, the tested form may be a part): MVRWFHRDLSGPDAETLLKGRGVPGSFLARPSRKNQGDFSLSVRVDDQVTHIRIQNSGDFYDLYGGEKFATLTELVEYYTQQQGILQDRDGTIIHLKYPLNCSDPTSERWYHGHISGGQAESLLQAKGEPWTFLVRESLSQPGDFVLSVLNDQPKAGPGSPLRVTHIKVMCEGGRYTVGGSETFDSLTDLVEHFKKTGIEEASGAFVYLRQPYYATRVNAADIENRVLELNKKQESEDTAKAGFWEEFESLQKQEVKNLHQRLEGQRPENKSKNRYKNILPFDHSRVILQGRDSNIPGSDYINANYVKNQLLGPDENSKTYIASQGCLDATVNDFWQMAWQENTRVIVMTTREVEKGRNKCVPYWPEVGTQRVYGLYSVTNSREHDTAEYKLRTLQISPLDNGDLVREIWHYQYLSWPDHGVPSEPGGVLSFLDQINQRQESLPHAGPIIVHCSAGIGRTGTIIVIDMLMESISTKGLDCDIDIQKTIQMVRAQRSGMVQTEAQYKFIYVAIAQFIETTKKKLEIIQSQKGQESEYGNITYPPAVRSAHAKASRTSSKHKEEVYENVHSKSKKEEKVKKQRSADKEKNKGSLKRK
T4 sequence (O75365 whole entry): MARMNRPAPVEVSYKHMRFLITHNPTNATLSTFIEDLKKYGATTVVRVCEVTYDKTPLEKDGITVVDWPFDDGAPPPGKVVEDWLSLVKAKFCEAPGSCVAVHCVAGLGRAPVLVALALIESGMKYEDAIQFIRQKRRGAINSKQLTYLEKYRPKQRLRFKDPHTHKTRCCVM
T1 sequence (Q93096 whole entry): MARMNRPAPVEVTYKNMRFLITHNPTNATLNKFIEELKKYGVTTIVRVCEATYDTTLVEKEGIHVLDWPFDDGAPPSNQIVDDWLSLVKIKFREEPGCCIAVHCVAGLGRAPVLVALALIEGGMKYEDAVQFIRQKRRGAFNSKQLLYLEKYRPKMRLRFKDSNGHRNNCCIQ
T2 sequence (O75365 whole entry): as the sequence (O75365 whole entry) above

Row | Compound | PTPase activity of Flag-PRL-1 immunocomplexes from treated transfectants (intracellular Flag-PRL-1) | PTPase activity of Flag-PRL-3 immunocomplexes from treated transfectants (intracellular Flag-PRL-3) | IL-3-induced Baf3 growth (Baf3 cells) | GM-CSF-induced proliferation of TF-1 cells (TF-1 cells) | blood levels, of peak value ([1]; in 16 hours) | excreted (renal clearance) ([1]; in the first 6 hours) | serum levels ([1]; standard dosage 10-20 mg/kg/day) [ng/mL] | effect on recombinant SHP-1 (GST/SHP-1 fusion protein [2]) | inhibition of PRL-3 after prolonged pre-incubation (recombinant PRL-3; pre-incubation 30 or 60 minutes, 10 mg/ml) | reversibility of PRL-3 inactivation (recombinant PRL-3; washing process) | reversibility of SHP-1 inhibition (GST/SHP-1 fusion protein [3]) | percentage of apoptotic cells (WM9 cells) [%] | response rates (Melanomas) [%] | % of growth inhibition by day 6 (±s.d.) (H9 cells (T-lymphoma)) | percentage of apoptotic cells (U266 cells) [%]
1 | O.O.O.O.O.O.O.O.O.O=C([O-])[C@@H]1[O][Sb]2([O-])([O][Sb]34([OH])[O][C@H]([C@H](O)CO)[C@H]([O]3)[C@H](C(=O)[O-])[O]4)[O][C@H]([C@H](O)CO)[C@@H]1[O]2.[Na+].[Na+].[Na+] [sodium stibogluconate] | little PTPase activities | lack of PTPase activity | suppressed | augmented | around 1% | more than 80% | ≥ 10000 | inactivated | nearly complete inactivation | not relieved | stable complexes |  |  |  | 
2 | IFNα |  |  |  |  |  |  |  |  |  |  |  | 15 | 15 | 86 (3) % | 16
